ChEMBL document CHEMBL1152363 (Bioorg Med Chem Lett, 2009)

What was measured:
[1] = target: Dipeptidyl peptidase 4 (Homo sapiens, UniProt P27487); experiment: Inhibition of DPP4 by continuous fluorimetric assay
[2] = Metabolic stability in rat liver microsomes assessed as turnover after 60 mins; format: ADME, Microsome; conditions: read-out: Stability

Chain of Dipeptidyl peptidase 4 (P27487 whole entry): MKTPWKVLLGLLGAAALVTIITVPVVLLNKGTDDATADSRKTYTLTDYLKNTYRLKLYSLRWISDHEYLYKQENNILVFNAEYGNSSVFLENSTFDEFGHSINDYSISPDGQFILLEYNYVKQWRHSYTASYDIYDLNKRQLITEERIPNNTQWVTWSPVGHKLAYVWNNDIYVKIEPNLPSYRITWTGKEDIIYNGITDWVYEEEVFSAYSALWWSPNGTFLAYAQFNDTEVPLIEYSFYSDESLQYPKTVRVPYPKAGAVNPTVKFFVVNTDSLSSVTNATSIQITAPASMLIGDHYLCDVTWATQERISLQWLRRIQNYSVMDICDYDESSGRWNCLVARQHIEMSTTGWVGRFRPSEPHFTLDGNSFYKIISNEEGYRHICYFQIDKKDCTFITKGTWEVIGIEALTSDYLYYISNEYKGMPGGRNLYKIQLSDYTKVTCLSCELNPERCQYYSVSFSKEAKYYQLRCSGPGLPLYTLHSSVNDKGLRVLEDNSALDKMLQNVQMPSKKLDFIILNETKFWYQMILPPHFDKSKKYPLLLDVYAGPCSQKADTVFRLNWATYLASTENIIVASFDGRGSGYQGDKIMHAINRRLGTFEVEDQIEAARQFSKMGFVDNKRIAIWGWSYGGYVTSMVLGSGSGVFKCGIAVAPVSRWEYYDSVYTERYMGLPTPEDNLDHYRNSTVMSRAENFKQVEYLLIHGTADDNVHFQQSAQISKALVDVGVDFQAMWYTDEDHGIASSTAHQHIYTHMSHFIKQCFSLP

Compound	IC50 [1]	metabolised at 1 h [2]
N[C@@H](CC(=O)N1CCC[C@H]1CNS(=O)(=O)c1cc(Cl)ccc1Cl)Cc1ccccc1F	24 nM	–
N[C@@H](CC(=O)N1CCC[C@H]1CNS(=O)(=O)c1ccc(F)cc1)Cc1ccccc1F	27 nM	–
CS(=O)(=O)c1ccccc1C(=O)NC[C@@H]1CCCN1C(=O)C[C@H](N)Cc1ccccc1F	27 nM	–
N[C@@H](CC(=O)N1CCC[C@H]1CNC(=O)c1ccccc1)Cc1cccc(Cl)c1	27 nM	–
N[C@@H](CC(=O)N1CCC[C@H]1CNS(=O)(=O)c1cccc(F)c1)Cc1ccccc1F	94 nM	–
N[C@@H](CC(=O)N1CCC[C@H]1CNS(=O)(=O)c1ccc(Cl)cc1)Cc1ccccc1F	20 nM	–
CS(=O)(=O)c1ccc(C(=O)NC[C@@H]2CCCN2C(=O)C[C@H](N)Cc2ccccc2F)cc1	77 nM	–
N[C@@H](CC(=O)N1CCC[C@H]1CNC(=O)c1ccccc1F)Cc1ccccc1F	49 nM	–

Second part, the molecule after the results:

IC50 [1]	metabolised at 1 h [2]	Compound
66 nM	–	N[C@@H](CC(=O)N1CCC[C@H]1CNC(=O)c1ccncc1)Cc1ccccc1F
92 nM	–	N[C@@H](CC(=O)N1CCC[C@H]1CNC(=O)c1cccc(F)c1)Cc1ccccc1F
92 nM	–	N[C@@H](CC(=O)N1CCC[C@H]1CNC(=O)c1ccc(F)cc1)Cc1ccccc1F
87 nM	–	N[C@@H](CC(=O)N1CCC[C@H]1CNC(=O)c1cccnc1)Cc1ccccc1F
47 nM	–	N[C@@H](CC(=O)N1CCC[C@H]1CNC(=O)c1ccccn1)Cc1ccccc1F
–	76%	N[C@@H](CC(=O)N1CCC[C@H]1CNC(=O)c1ccccc1)Cc1ccccc1F
